18 compounds from patent US20190275012A9, “SUBSTITUTED THIAZOLO-PYRIDINE COMPOUNDS AS MALT1 INHIBITORS” (Lupin Limited, priority 2016, published 2019) can be followed below.

For one test, the target named is T1, full length MALT1 enzyme (Homo sapiens, UniProt Q9UDY8).
T1 construct: a fluorescence based assay with full length MALT1 enzyme
T1 sequence (Q9UDY8 1-824): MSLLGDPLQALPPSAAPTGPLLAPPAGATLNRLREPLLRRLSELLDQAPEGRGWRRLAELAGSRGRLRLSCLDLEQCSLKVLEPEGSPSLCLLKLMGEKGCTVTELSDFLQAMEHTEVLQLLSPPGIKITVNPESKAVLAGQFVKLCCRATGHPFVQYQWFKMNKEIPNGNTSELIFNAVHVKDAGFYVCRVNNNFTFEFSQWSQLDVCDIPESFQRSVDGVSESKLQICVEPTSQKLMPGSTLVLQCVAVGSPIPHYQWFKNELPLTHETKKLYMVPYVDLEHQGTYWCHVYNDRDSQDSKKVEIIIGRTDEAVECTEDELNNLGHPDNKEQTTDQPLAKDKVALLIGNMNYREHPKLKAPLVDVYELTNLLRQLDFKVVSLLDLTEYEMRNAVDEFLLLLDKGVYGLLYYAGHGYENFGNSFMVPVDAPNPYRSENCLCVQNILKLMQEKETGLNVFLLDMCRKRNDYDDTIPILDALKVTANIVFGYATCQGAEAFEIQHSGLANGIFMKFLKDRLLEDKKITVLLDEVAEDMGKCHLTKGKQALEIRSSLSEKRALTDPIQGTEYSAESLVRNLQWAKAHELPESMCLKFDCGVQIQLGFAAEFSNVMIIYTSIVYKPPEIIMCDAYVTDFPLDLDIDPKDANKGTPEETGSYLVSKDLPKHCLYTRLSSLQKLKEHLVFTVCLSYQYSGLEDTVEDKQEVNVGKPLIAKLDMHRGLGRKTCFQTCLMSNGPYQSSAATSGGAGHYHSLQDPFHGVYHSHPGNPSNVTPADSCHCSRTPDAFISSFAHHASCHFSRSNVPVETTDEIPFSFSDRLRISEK
Kind of test: MALT1 biochemical assay (fluorescence based, Ac-Leu-Arg-Ser-Arg-AMC cleavage). The following applies: full length MALT1 protein, 2 h pre-incubation at RT, tetrapeptide substrate Ac-Leu-Arg-Ser-Arg-AMC, read-out: Malt 1 inhibition IC50. How it is done:
The biochemical potency of the MALT1 inhibitors was tested by using a fluorescence based assay with full length MALT1 enzyme. The assay principle makes use of the preferential cleavage by MALT1 after the Arginine residue. Thus, the substrate used is a tetrapeptide (Ac-Leu-Arg-Ser-Arg-AMC; Catalogue # SMAMC013, SM Biochemicals) which is cleaved by active MALT1 releasing the AMC which is fluorescent. Upon addition of the MALT1 protease inhibitors, the proteolytic activity (and accordingly AMC fluorescence) is reduced in a dose dependent manner. The kinetic characterization of the enzymatic reaction was measured by determining the Michaelis constant, Km, of the reaction (approximately 130=A/I). The assay buffer consisted of 50 mM MES, 150 mM NaCl, 0.1% w/v CHAPS, 1 M Ammonium citrate and 10 mM DTT (pH=7). The assay was established for the 384-well plate format using black microtiter square well plates (Optiplate 384-F, Perkin Elmer). The test compounds were dissolved in 100% DMSO at a stock concentration of 10 mM. Serial dilutions were made first in 100% DMSO. The final concentration of DMSO was 0.5% by wt.
For determining the extent of inhibition of MALT1 protease activity by MALT1 inhibitors, 10⇒| of the test compound solutions were pre-incubated with 10⇒| of MALT1 full length protein (100-300 ng protein/well) for 2 h at RT. This was followed by 10⇒| of substrate addition at a final concentration of 100⇒M for an additional 4-12 h. The increase in assay signal was linear over this period of time and proportional with increase in the enzyme content. The final concentrations of the test compounds typically ranged from 10000 nM to 0.03 nM in an alternate 3.16 and 3 serial dilutions. The positive control for the reaction contained enzyme and DMSO (without any test compound) and was considered to have 100% enzyme activity (0% inhibition) and the negative control containing only buffer and DMSO (without any enzyme) was considered to have no enzymatic activity (100% inhibition). The fluorescence was recorded in a Spectra Max plate reader, Molecular Devices, with a fluorescence excitation at 360 nm and emission recording at 460 nm. The fluorescence units were transformed to percentage inhibitions by using the positive and negative controls as references as per the following formula.
[formula] Positive control=Reaction containing enzyme+substrate+DMSO
Negative control=Reaction containing substrate+DMSO but no enzyme
The IC50 values of individual compounds were calculated with Non Linear Regression Analysis using Graph Pad Prism (Graph Pad software, Inc, USA).

For test [1], the system named is NF-kB transcriptional activity in HEK-293-NF-kB-Luc cell line overexpressing MALT1. Kind of test: NF-kB reporter assay (luciferase, MALT1 stably overexpressed). Format: cell-based. Conditions: Homo sapiens, 24 h, HEK-293-NF-kB-Luc cells stably overexpressing MALT1, 24 h treatment, Bright Glo luminescence; read-out: NF-kB inhibition IC50. The method in brief: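 Inhibition of NF-κB activity was expressed relative to 0.1% DMSO wells, from luminescence after 10 min Bright Glo at ambient temperature. Compounds had been applied for 24 h to adhered MALT1-overexpressing HEK-293 NF-κB luciferase reporter cells.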

SMILES strings stand for the structures.

Take `COC(C)c1c(NC(=O)Nc2ccc(-c3cnco3)c(Cl)c2)cnc2sc(C)nc12` (single isomer, unassigned) [Compound 204, (S) or (R)-1-(3-Chloro-4-(oxazol-5-yl)phenyl)-3-(7-(1-methoxyethyl)-2-methylthiazolo[5,4-b]pyridin-6-yl)urea]: the IC50 (on full length MALT1 enzyme; in test [1]) was 101 to 500 nM throughout.

For `COC(C)c1c(NC(=O)Nc2cnc(-n3cccn3)c(C(F)(F)F)c2)cnc2sc(C)nc12` (single isomer, unassigned) [Compound 213b, (S) or (R)-1-(6-(1H-Pyrazol-1-yl)-5-(trifluoromethyl)pyridin-3-yl)-3-(7-(1-methoxyethyl)-2-methylthiazolo[5,4-b]pyridin-6-yl)urea], the 50% inhibitory concentration (IC50) at full length MALT1 enzyme was in the range of 1 to 50 nM; in test [1], 1 to 100 nM.

For `CCc1nc2c(C(C)OC)c(NC(=O)Nc3ccc(-n4nccn4)c(Cl)c3)cnc2s1` (single isomer, unassigned) [Compound 233b, 1-(3-Chloro-4-(2H-1,2,3-triazol-2-yl)phenyl)-3-(2-ethyl-7-(1-methoxyethyl)thiazolo[5,4-b]pyridin-6-yl)urea], the 50% inhibitory concentration (IC50) lay within 1 to 50 nM at full length MALT1 enzyme and 101 to 500 nM in test [1].

In the case of `COC(C)c1c(NC(=O)Nc2cnc(-n3cnnn3)c(C(F)(F)F)c2)cnc2sc(C)nc12` (single isomer, unassigned) [Compound 239, (S or R)-1-(6-(1H-Tetrazol-1-yl)-5-(trifluoromethyl)pyridin-3-yl)-3-(7-(1-methoxyethyl)-2-methylthiazolo[5,4-b]pyridin-6-yl)urea], the figures for the half-inhibitory concentration (IC50) (at full length MALT1 enzyme; in test [1]) were 1 to 50 nM and 1 to 100 nM, respectively.

As for `COC(CC1CC1)c1c(NC(=O)Nc2cnc(-n3nccn3)c(C(F)(F)F)c2)cnc2sc(C)nc12` (single isomer, unassigned) [Compound 240b, 1-(6-(2H-1,2,3-Triazol-2-yl)-5-(trifluoromethyl)pyridin-3-yl)-3-(7-(2-cyclopropyl-1-methoxyethyl)-2-methylthiazolo[5,4-b]pyridin-6-yl)urea], the 50% inhibitory concentration (IC50) at full length MALT1 enzyme fell in the range of 1 to 50 nM; in test [1] it was 1 to 100 nM.

As to `CCOc1ncc(NC(=O)Nc2cnc3sc(C)nc3c2C2CC2)cc1Cl` [Compound 4, 1-(5-Chloro-6-ethoxypyridin-3-yl)-3-(7-cyclopropyl-2-methylthiazolo[5,4-b]pyridin-6-yl)urea], the 50% inhibitory concentration (IC50) fell in the range of 1 to 50 nM at full length MALT1 enzyme and 501 to 1500 nM in test [1].

Turning to `Cc1nc2c(C3CC3)c(NC(=O)Nc3cc(C(F)(F)F)cn(C)c3=O)cnc2s1` [Compound 5, 1-(7-Cyclopropyl-2-methylthiazolo[5,4-b]pyridin-6-yl)-3-(1-methyl-2-oxo-5-(trifluoromethyl)-1,2-dihydropyridin-3-yl)urea], the IC50 (at full length MALT1 enzyme; in test [1]) was 101 to 500 nM throughout.

Take `Cc1nc2c(C3CC3)c(NC(=O)Nc3cncc(C(F)(F)F)c3)cnc2s1` [Compound 7, 1-(7-Cyclopropyl-2-methylthiazolo[5,4-b]pyridin-6-yl)-3-(5-(trifluoromethyl)pyridin-3-yl)urea]: the concentration for half-maximal inhibition (IC50) (on full length MALT1 enzyme; in test [1]) was 101 to 500 nM each time.

Regarding `COc1cc(F)ccc1-c1c(NC(=O)Nc2cnc(OC)c(Cl)c2)cnc2sc(C)nc12` [Compound 15, 1-(5-Chloro-6-methoxypyridin-3-yl)-3-(7-(4-fluoro-2-methoxyphenyl)-2-methylthiazolo[5,4-b]pyridin-6-yl)urea], the 50% inhibitory concentration (IC50) lay within 1 to 50 nM on full length MALT1 enzyme and 501 to 1500 nM in test [1].

On to `Cc1nc2c(C3CC3)c(NC(=O)Nc3cnc(N4CCCS4(=O)=O)c(C(F)(F)F)c3)cnc2s1` [Compound 23, 1-(7-Cyclopropyl-2-methylthiazolo[5,4-b]pyridin-6-yl)-3-(6-(1,1-dioxidoisothiazolidin-2-yl)-5-(trifluoromethyl)pyridin-3-yl)urea], for which the 50% inhibitory concentration (IC50) lay in the range of 51 to 100 nM at full length MALT1 enzyme and 101 to 500 nM in test [1].

As for `CCc1c(NC(=O)Nc2ccc(OC)c(Cl)c2)cnc2sc(C)nc12` [Compound 25, 1-(3-Chloro-4-methoxyphenyl)-3-(7-ethyl-2-methylthiazolo[5,4-b]pyridin-6-yl)urea], the 50% inhibitory concentration (IC50) at full length MALT1 enzyme lay in the range of 1 to 50 nM; in test [1], 501 to 1500 nM.

For the compound `COC1CCN(c2c(NC(=O)Nc3cnc(-n4nccn4)c(Cl)c3)cnc3sc(C)nc23)CC1` [Compound 29, 1-(5-Chloro-6-(2H-1,2,3-triazol-2-yl)pyridin-3-yl)-3-(7-(4-methoxypiperidin-1-yl)-2-methylthiazolo[5,4-b]pyridin-6-yl)urea], the concentration for half-maximal inhibition (IC50) was in the range of 51 to 100 nM on full length MALT1 enzyme and 101 to 500 nM in test [1].

With `CCc1nc2c(C3CC3)c(NC(=O)Nc3cnc(-n4nccn4)c(Cl)c3)cnc2s1` [Compound 31, 1-(5-Chloro-6-(2H-1,2,3-triazol-2-yl)pyridin-3-yl)-3-(7-cyclopropyl-2-ethylthiazolo[5,4-b]pyridin-6-yl)urea], the 50% inhibitory concentration (IC50) on full length MALT1 enzyme was in the range of 1 to 50 nM; in test [1], 101 to 500 nM.

For the compound `Cc1nc2c(N3CCC(C)CC3)c(NC(=O)Nc3cnc(-n4nccn4)c(Cl)c3)cnc2s1` [Compound 37, 1-(5-Chloro-6-(2H-1,2,3-triazol-2-yl)pyridin-3-yl)-3-(2-methyl-7-(4-methylpiperidin-1-yl)thiazolo[5,4-b]pyridin-6-yl)urea], the values for the half-inhibitory concentration (IC50) (at full length MALT1 enzyme; in test [1]) were 51 to 100 nM and 101 to 500 nM, respectively.

As to `Cc1nc2c(N3CCCCC3)c(NC(=O)Nc3cnc(-n4nccn4)c(Cl)c3)cnc2s1` [Compound 40, 1-(5-Chloro-6-(2H-1,2,3-triazol-2-yl)pyridin-3-yl)-3-(2-methyl-7-(piperidin-1-yl)thiazolo[5,4-b]pyridin-6-yl)urea], the IC50 on full length MALT1 enzyme is 1 to 50 nM; in test [1], 1 to 100 nM.

On to `Cc1nc2c(C3CC3)c(NC(=O)Nc3cnc(OCCC4CCN(C)CC4)c(Cl)c3)cnc2s1` [Compound 73, 1-(5-Chloro-6-(2-(1-methylpiperidin-4-yl)ethoxy)pyridin-3-yl)-3-(7-cyclopropyl-2-methylthiazolo[5,4-b]pyridin-6-yl)urea], for which the results for the IC50 (on full length MALT1 enzyme; in test [1]) were 51 to 100 nM and 101 to 500 nM, respectively.

Take `COC(C)(C)c1c(NC(=O)Nc2ccc(-n3nccn3)c(Cl)c2)cnc2sc(C)nc12` [Compound 98, 1-(3-Chloro-4-(2H-1,2,3-triazol-2-yl)phenyl)-3-(7-(2-methoxypropan-2-yl)-2-methylthiazolo[5,4-b]pyridin-6-yl)urea]: the IC50 at full length MALT1 enzyme fell in the range of 1 to 50 nM; in test [1] it was 1 to 100 nM.

Turning to `COCC1(c2c(NC(=O)Nc3cnc(-n4nccn4)c(C(F)(F)F)c3)cnc3sc(C)nc23)CC1` [Compound 102, 1-(6-(2H-1,2,3-Triazol-2-yl)-5-(trifluoromethyl)pyridin-3-yl)-3-(7-(1-(methoxymethyl)cyclopropyl)-2-methylthiazolo[5,4-b]pyridin-6-yl)urea], the IC50 on full length MALT1 enzyme is 1 to 50 nM; in test [1], 1 to 100 nM.
